The values below come from patent publication US20250361230A1, “LATS Inhibitors and Uses Thereof” (The USA, as Represented by the Secretary, Dept. of Heath …, priority 2022, published 2025).

The target of this experiment is T1, LATS1 Kinase-NanoLuc fusion in HEK-293 cells (Homo sapiens, UniProt O95835).
T1 construct: host or cells: HEK-293
T1 sequence (O95835 1-1130): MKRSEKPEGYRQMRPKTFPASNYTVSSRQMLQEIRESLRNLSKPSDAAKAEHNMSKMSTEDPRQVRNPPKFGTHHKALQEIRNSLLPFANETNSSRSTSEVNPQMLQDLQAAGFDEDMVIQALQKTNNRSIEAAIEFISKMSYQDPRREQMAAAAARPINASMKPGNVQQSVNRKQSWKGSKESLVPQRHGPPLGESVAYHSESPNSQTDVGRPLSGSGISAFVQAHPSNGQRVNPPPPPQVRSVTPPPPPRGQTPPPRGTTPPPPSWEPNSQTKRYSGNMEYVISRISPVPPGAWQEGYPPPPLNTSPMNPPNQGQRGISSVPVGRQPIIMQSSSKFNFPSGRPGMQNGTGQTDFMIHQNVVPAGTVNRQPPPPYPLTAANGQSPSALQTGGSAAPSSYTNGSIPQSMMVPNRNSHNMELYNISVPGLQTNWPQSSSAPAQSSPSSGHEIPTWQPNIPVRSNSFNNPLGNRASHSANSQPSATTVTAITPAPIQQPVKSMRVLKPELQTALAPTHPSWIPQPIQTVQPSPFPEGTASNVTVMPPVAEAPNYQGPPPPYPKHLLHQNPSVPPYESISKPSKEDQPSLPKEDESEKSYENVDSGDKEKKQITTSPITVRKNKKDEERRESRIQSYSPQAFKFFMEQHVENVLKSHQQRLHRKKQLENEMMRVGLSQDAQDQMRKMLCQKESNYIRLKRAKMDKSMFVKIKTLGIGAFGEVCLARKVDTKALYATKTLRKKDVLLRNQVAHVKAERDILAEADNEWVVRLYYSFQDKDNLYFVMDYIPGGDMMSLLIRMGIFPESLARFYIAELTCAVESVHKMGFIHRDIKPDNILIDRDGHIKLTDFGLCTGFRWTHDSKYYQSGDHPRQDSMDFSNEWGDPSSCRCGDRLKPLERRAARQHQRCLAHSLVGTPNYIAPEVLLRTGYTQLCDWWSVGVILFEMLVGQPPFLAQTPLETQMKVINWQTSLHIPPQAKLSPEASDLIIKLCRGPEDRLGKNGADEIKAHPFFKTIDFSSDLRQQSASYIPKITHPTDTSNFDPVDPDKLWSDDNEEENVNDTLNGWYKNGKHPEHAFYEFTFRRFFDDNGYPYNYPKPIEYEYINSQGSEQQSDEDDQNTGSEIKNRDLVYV
The experiment can be described thus: NanoBRET target engagement assay in transfected HEK-293 cells, LATS1. In kind it is cell-based. As to conditions: Table 28, NanoBRET, HEK-293 cells; read-out: LATS1 (Cellular) IC50. The source says:
The NanoBRET™ assay measures kinase engagement in real time in the context of the intact cell. The assay uses a Kinase-NanoLuc® fusion vector expressing a kinase protein to which a luciferase tag has been added, a cell-permeant fluorescent NanoBRET™ tracer, a NanoLuc® substrate, and an extracellular NanoLuc® inhibitor. Upon expression of the luciferase-tagged kinase, cells will produce a strong BRET signal only in the presence of the NanoBRET™ tracer. The extracellular NanoLuc® inhibitor ensures that the BRET signal observed emanates only from live cells. Because the BRET signal has tight distance constraints, addition of the test compound will decrease the BRET signal if the compound competes with the NanoBRET™ tracer for binding to the kinase domain. Under the appropriate tracer conditions established by the manufacturer, quantitative intracellular affinity and relative potency can then be determined using Mass Action model equations.
HEK-293 cells were purchased from ATCC. FuGENEHD Transfection Reagent, Kinase-NanoLuc® fusion plasmids, Transfection Carrier DNA, NanoBRET™ Tracers and dilution buffer, NanoBRET™ Nano-Glo Substrate, Extracellular NanoLuc® Inhibitor were obtained from Promega.
Assays were conducted following Promega assay protocol with some modifications as described further below. HEK-293 Cells were transiently transfected with Kinase-NanoLuc® Fusion Vector DNA by FuGENE HD Transfection Reagent. Test compounds were delivered into 384 well assay plate by Echo 550 (Labcyte Inc, Sunnyvale, CA). Transfected cells were harvested and mixed with NanoBRET™ Tracer Reagent and dispensed into 384 well plates and incubated at 37° C. in 5% CO2 cell culture incubator for 1 hour. The NanoBRET™ Nano-Glo Substrate plus Extracellular NanoLuc® Inhibitor Solution were added into the wells of the assay plate and incubated for 2-3 minutes at room temperature. The donor emission wavelength (460 nm) and acceptor emission wavelength (600 nm) were measured in the EnVision plate reader. The BRET Ratios were calculated. BRET Ratio=[(Acceptor sample÷Donor sample)−(Acceptor no-tracer control÷Donor no-tracer control)]. The IC50 values of compounds were calculated with Prism GraphPad program.
• 1. Transient Transfection of HEK-293 Cells NanoLuc® Fusion Vector DNA • 1). Cultivate HEK-293 cells (70-80% confluence) appropriately prior to assay. Trypsinize and collect HEK-293 cells. • 2). Prepare lipid: DNA complexes as follows: • a. Prepare a […] solution of DNA in Opti-MEM™ without serum that consists of the following ratios of carrier DNA and DNA encoding NanoLuc® fusion. 9.0 µg/mL of Transfection Carrier DNA, […] of NanoLuc® fusion vector DNA and 1 mL of Opti-MEM™ without phenol red. Mix thoroughly. • b. Add 30 μl of FuGENE HD Transfection Reagent into each milliliter of DNA mixture to form lipid: DNA complex. • c. Mix by inversion 10 times. • d. Incubate at ambient temperature for 20 minutes to allow complexes to form. • 3). In a sterile, conical tube, mix 1 part of lipid: DNA complex with 20 parts of HEK-293 cells in suspension. Mix gently by inversion 5 times. • 4). Dispense cells+lipid: DNA complex into a sterile tissue culture dish and incubate for 22-24 hours. • 2. Addition of Test Compounds (dry plate shooting): Each test compound is delivered from the compound source plate to the wells of 384-well white NBS plate by Echo 550. • 3. Preparation of Cells with NanoBRET™ Tracer Reagent • 1). Remove medium from dish with transfected HEK-293 cells via aspiration, trypsinize and allow cells to dissociate from the dish. • 2). Neutralize trypsin using medium containing serum and centrifuge at 200× g for 5 minutes to pellet the cells. Adjust the cell density to 2×10^5 cells/mL in Opti-MEM™ without phenol red. • 3). Prepare Complete 20× NanoBRET™ Tracer Reagent with Tracer Dilution Buffer. • 4). Dispense one part of Complete 20× NanoBRET™ Tracer Reagent to 20 parts of cells in the tube. Mix gently by inversion 10 times. • 5). […]
Background: BRET reads energy transfer from a luciferase to a nearby fluorophore.
By IC50 is commonly meant the point on the concentration scale where inhibition reaches its midpoint. Turning to `C[C@@H]1CNC[C@H](C)[C@@]1(O)c1ccc(-c2ccnc3[nH]cc(F)c23)cc1Cl` [Compound 1, (3S,4S,5R)-4-(2-chloro-4-(3-fluoro-1H-pyrrolo[2,3-b]pyridin-4-yl)phenyl)-3,5-dimethylpiperidin-4-ol], the IC50 came to 203 nM.
Under `C[C@@H]1CNC[C@H](C)[C@@]1(O)c1ccc(-c2ccnc3[nH]cc(F)c23)cc1` [Compound 2, (3R,4s,5S)-4-(4-(3-fluoro-1H-pyrrolo[2,3-b]pyridin-4-yl)phenyl)-3,5-dimethylpiperidin-4-ol] stands 550 nM; under `C[C@@H]1CNC[C@H](C)[C@@]1(O)c1ccc(-c2ccnc3[nH]cc(F)c23)cc1F` [Compound 7, (3S,4s,5R)-4-(2-fluoro-4-(3-fluoro-1H-pyrrolo[2,3-b]pyridin-4-yl)phenyl)-3,5-dimethyl piperidin-4-ol], 247 nM.
In the case of `C[C@@H]1CNC[C@H](C)[C@@]1(O)c1ccc(-c2ccnc3[nH]cc(F)c23)nc1` [Compound 8, (3S,4s,5R)-4-(6-(3-fluoro-1H-pyrrolo[2,3-b]pyridin-4-yl)pyridin-3-yl)-3,5-dimethylpiperidin-4-ol], the concentration for half-maximal inhibition (IC50) came to 60 nM.
To `Cc1cc(-c2ccnc3[nH]cc(F)c23)ccc1[C@@]1(O)[C@H](C)CNC[C@@H]1C` [Compound 9, (3S,4s,5R)-4-(4-(3-fluoro-1H-pyrrolo[2,3-b]pyridin-4-yl)-2-methylphenyl)-3,5-dimethylpiperidin-4-ol] belongs 44.6 nM; to `C[C@@H]1CNC[C@H](C)[C@@]1(O)c1c(F)cc(-c2ccnc3[nH]cc(F)c23)cc1F` [Compound 13], 1450 nM.
To `C[C@@H]1CNC[C@H](C)[C@@]1(O)c1ccc(-c2ccnc3[nH]cc(F)c23)cc1OC(F)(F)F` [Compound 14, (3S,4s,5R)-4-(4-(3-fluoro-1H-pyrrolo[2,3-b]pyridin-4-yl)-2-(trifluoromethoxy)phenyl)-3,5-dimethylpiperidin-4-ol] belongs 2130 nM.
To `C[C@@H]1CN(Cc2ccccn2)C[C@H](C)[C@@]1(O)c1c(F)cc(-c2ccnc3[nH]cc(F)c23)cc1F` [Compound 17, (3S,4s,5R)-4-(2,6-difluoro-4-(3-fluoro-1H-pyrrolo[2,3-b]pyridin-4-yl)phenyl)-3,5-dimethyl-1-(pyridin-2-ylmethyl)piperidin-4-ol] belongs 409 nM; to `C[C@@H]1CN(C)C[C@H](C)[C@@]1(O)c1cnc(-c2ccnc3[nH]cc(F)c23)cc1Cl` [Compound 22, (3S,4s,5R)-4-(4-chloro-6-(3-fluoro-1H-pyrrolo[2,3-b]pyridin-4-yl)pyridin-3-yl)-1,3,5-trimethylpiperidin-4-ol], 505 nM.
`Cc1cc(-c2ccnc3[nH]cc(F)c23)ccc1[C@@]1(O)[C@H](C)CN(C2COC2)C[C@@H]1C` [Compound 24, (3S,4s,5R)-4-(4-(3-fluoro-1H-pyrrolo[2,3-b]pyridin-4-yl)-2-methylphenyl)-3,5-dimethyl-1-(oxetan-3-yl)piperidin-4-ol]: the IC50 was 127 nM.
Under `Cc1cc(-c2ccnc3[nH]cc(F)c23)ccc1[C@@]1(O)[C@H](C)CN(C(C)C)C[C@@H]1C` [Compound 29, (3S,4s, 5R)-4-(4-(3-fluoro-1H-pyrrolo[2,3-b]pyridin-4-yl)-2-methylphenyl)-1-isopropyl-3,5-dimethylpiperidin-4-ol] stands 86 nM.
Under `Cc1cc(-c2ccnc3[nH]cc(F)c23)cc(F)c1C1(O)[C@H](C)CN(C2COC2)C[C@@H]1C` (stereo partly drawn) [Compound 30, (3S,5R)-4-(2-fluoro-4-(3-fluoro-1H-pyrrolo[2,3-b]pyridin-4-yl)-6-methylphenyl)-3,5-dimethyl-1-(oxetan-3-yl)piperidin-4-ol] stands 58.2 nM; under `C[C@@H]1CN(C2CCS(=O)(=O)CC2)C[C@H](C)C1(O)c1c(F)cc(-c2ccnc3[nH]cc(F)c23)cc1F` (stereo partly drawn) [Compound 31, 4-((3S,5R)-4-(2,6-difluoro-4-(3-fluoro-1H-pyrrolo[2,3-b]pyridin-4-yl)phenyl)-4-hydroxy-3,5-dimethylpiperidin-1-yl)tetrahydro-2H-thiopyran 1,1-dioxide], 1190 nM.
To `C[C@@H]1CN(C)C[C@H](C)[C@@]1(O)c1ccc(-c2ccnc3[nH]cc(F)c23)cc1` [Compound 39, (3R,4s,5S)-4-(4-(3-fluoro-1H-pyrrolo[2,3-b]pyridin-4-yl)phenyl)-1,3,5-trimethylpiperidin-4-ol] belongs 19000 nM; to `C[C@@H]1CN(C)C[C@H](C)[C@@]1(O)c1ccc(-c2ccnc3[nH]cc(F)c23)nc1` [Compound 41, (3R,4s,5S)-4-(6-(3-fluoro-1H-pyrrolo[2,3-b]pyridin-4-yl)pyridin-3-yl)-1,3,5-trimethylpiperidin-4-ol], 115 nM; to `C[C@@H]1CN(C2COC2)C[C@H](C)[C@@]1(O)c1c(F)cc(-c2ccnc3[nH]cc(F)c23)cc1F` [Compound 45, (3S,4s,5R)-4-(2,6-difluoro-4-(3-fluoro-1H-pyrrolo[2,3-b]pyridin-4-yl)phenyl)-3, S-dimethyl-1-(oxetan-3-yl)piperidin-4-ol], 813 nM.
Consider `C[C@@H]1CN(C2CCC2)C[C@H](C)[C@@]1(O)c1c(F)cc(-c2ccnc3[nH]cc(F)c23)cc1F` [Compound 46, (3R,4s,5S)-1-cyclobutyl-4-(2,6-difluoro-4-(3-fluoro-1H-pyrrolo[2,3-b]pyridin-4-yl)phenyl)-3,5-dimethylpiperidin-4-ol], for which the IC50 is 462 nM.
In the case of `Cc1cc(-c2ccnc3[nH]cc(F)c23)ncc1[C@@]1(O)[C@H](C)CN(C2CCC2)C[C@@H]1C` [Compound 48, (3R,4s,5S)-1-cyclobutyl-4-(6-(3-fluoro-1H-pyrrolo[2,3-b]pyridin-4-yl)-4-methylpyridin-3-yl)-3,5-dimethylpiperidin-4-ol], the IC50 was 12600 nM.
